Source: EP1101496A1, “THERAPEUTIC AGENTS FOR ALLERGIC DISEASES” (FUJI YAKUHIN KOGYO KABUSHIKI KAISHA, priority 1998, dated 2000)

How the values were obtained:
[1] = test system: Type IV Allergic Dermatitis; assay: Type IV allergic dermatitis (oxazolone-induced auricle edema); assay type: in vivo, Mice (male, Balb/c)
Protocol: Mice (male, Balb/c, 6 weeks old, 20 to 25 g) were sensitized by painting a 3% solution of oxazolone (100 µL) abdominally. Six days after sensitization, a 0.5% solution of oxazolone in acetone was painted on both sides of a right ear at a dose of 10 µL to raise auricle edema. An untreated group was painted with the solvent (acetone) alone onto both sides of a left ear of the same mouse at 10 µL. At 24 hours after edema-induction, each mouse was sacrificed with ether and an equivalent each of right and left auricles was stamped out with a puncher (diameter: 6 mm). Both left and right auricle sections were measure for their weight and each percent edema was calculated (Kazuo Ouchi (Ed.), "Seibutsu Yakukagaku Jikken Koza, Ensho To Allergy (Inflammation and Allergy) I-1", 1993, Hirokawa Publishing Co., Japan) Percent Edema (%) =((Right Auricular Segment Weight - Left Auricular Segment Weight))/(Left Auricular Segment Weight)× 100 [formula]
A solution of a test metalloproteinase inhibitor (Compound No. 8, 50 mg/mL) in ethanol was painted onto both sides of a right auricle at 10 µL per side twice, i.e., 0.5 hr prior to edema-induction and 6 hours after edema-induction. The solvent (ethanol) alone was painted on a left auricle at the same dose ([…]). […]

Allergic Rhinitis = assay: Allergic rhinitis model (nasal airway resistance); assay type: in vivo, Guinea pigs; conditions: 15 mg/kg s.c. one hour prior to rhinitis-induction; 20 minutes after antigen-challenge
Protocol: Guinea pigs (male, Std:Hartley, 3 weeks old) were housed and fed in a aluminum cage at a rate of up to 5 animals per cage. After acclimatization for 1 week, the guinea pigs were administered intravenously with an anti-ovalbumin antibody (Nihon Bioresearch Inc., Hajima Institute; antibody titer by a 3-hour homologous passive cutaneous anaphylaxis reaction, 1 : 8192) prepared according to the Orange & Moore method (Orange, R. P. and Moore, E. G., The Journal of Immunology 116: p.392-397, 1976) into their auricle vein at a dose of 0.3 mL/animal for passive sensitization. Twenty four to twenty six hours after sensitization under conditions of fast and free access to drinking water, the sensitized guinea pigs were anesthetized with urethane (1.2 g/kg, intraperitoneal administration), fixed in a supine position, and mediad excised cervically to expose tracheas. […] Variations of the ventilatory overflow were quantitatively recorded on a recticoder (RECTI-HORIZ-8K, Nippon Denki Sanei K.K.) for 20 minutes after antigen-challenge.
Wave height (cm) was measured on recorded papers and a nasal airway resistance value was calculated according to the following formula: Percent Increase (%) in Nasal Airway Resistance =((Observed Value)-(Value prior to Administration))/((Complete Obstruction)-(Value prior to Administration))× 100 [formula] […]

CNC(=O)[C@H](Cc1ccc(NC(=N)N)cc1)NC(=O)[C@H](CC(C)C)C(CCCc1ccccc1)C(=O)NO (single isomer, unassigned) [Compound No. 8, N-[4-(N-hydroxyamino)-2(R)-isobutyl-3(R or S)-(3-phenyltrimethylene)succinyl]-L-4'-guanidophenylalanine-N-methylamide 1 acetate]
therapeutic potency on the development of auricle edemas (FIG. 12) ([1]; 50 mg/mL in ethanol, 10 µL per side painted on right auricle 0.5 hr prior to and 6 hours after edema-induction, 24 hours after induction): amelioration of auricle edemas
effect of the compound alone on auricles (unsensitized group, FIG. 12) ([1]; unsensitized mice, 50 mg/mL in ethanol painted on auricle): almost free of swelling and/or thinning
increase in nasal airway resistance due to antigen challenge (FIG. 14) (Allergic Rhinitis): markedly ameliorates an increase in nasal airway resistance
